From US8754056B2, “Enhancing vessel lesion homing and repair potential of stem cells” (University of Florida Research Foundation, Inc., priority 2008, dated 2014)
[PMO-N] = phosphorodiamidate morpholino subunit (N: the base)

Columns and labels:
[1] = test system: CXCR7; assay: Real-time PCR of CXCR7 mRNA in CD34+ EPCs; type: cell-based, human; conditions: non-diabetic CD34+ cells, P<0.001
Protocol: (§1) Total mRNA from CD34 cells was isolated by using the Total RNA Mini Kit (Bio-Rad, Hercules, Calif.). The mRNA was transcribed by using an iScript cDNA Synthesis Kit (BioRad), and real-time PCR was performed using primers for CXCR4, CXCR7, or beta actin as per manufacturer's instructions (Ambion, Austin, Tex.). Real-time PCR was performed on 7500 Fast Real-Time PCR system for 40 cycles and all reactions were performed in triplicate.

[2] = test system: Diabetic PB CD34+CD45+; assay: Surface antigen expression after PMO treatment, diabetic cells; type: cell-based, human
[3] = test system: CD34+ EPCs; assay: Modified Boyden chamber migration to SDF-1 after PMO treatment; type: cell-based, human; conditions: SDF-1 100 nM
[4] = test system: human CD34+ cells; assay: Survival in the absence of growth factors and later proliferation of CD34+ cells; type: cell-based
Protocol: Two discrete cord blood stem cell populations, lin^−CD34^+CD38^+ (FIG. 5A) or lin^−CD34^+CD38^− (FIG. 5B), in addition to lin^−CD34^+ cells from peripheral blood and bone marrow (FIG. 6A) were either treated with PMO containing medium or not. After 5 days, all cells received growth factors (Tpo, SCF, IL-3, IL-6) to detect live, growth factor responsive cells and their proliferative potential after 14 days was determined. By day 14, cells exposed to 20-300 μg/mL of anti-TGF-β-PMO typically formed macro colonies (>100,000 cells) after the addition of growth factors (FIG. 5).
Human cord blood and bone marrow CD34^+ EPCs were purchased from AllCells (Emeryville, Calif.) as positively selected lin^−, magnetic bead-purified frozen cell populations that were >95% CD34^+ cells by FACS analysis. Cells were thawed in a 37° C. water bath, diluted in excess IMDM 10% FBS, pelleted by centrifugation (300×g for 10 min), washed by centrifugation one additional time and, finally, counted using a hemocytometer. Viability, as determined by trypan blue dye exclusion, was routinely >95% after thaw and washes.
Further purification was carried out prior to survival and proliferation studies. Cells were adjusted to 5×10^5/mL in phosphate-buffered saline (PBS) containing 2% (v/v) fetal bovine serum (FBS) and incubated with single murine antibody controls and murine anti-CD34-PE, anti-CD45-PE-Cy5 and anti-CD38-APC. Just prior to cell sorting, propidium iodide (2 μg/mL) was added to detect non-viable cells. CD34^+, CD45^mid cells (HSCs are CD45^mid expressing and can be clearly separated from contaminating lymphocytes, which are CD45^high expressing) and CD38^+/− cells were directly sorted into 96-well round bottom plates (10±2 cells/well) containing IMDM, 10% horse serum, 10% FBS, 100 units/mL of penicillin, 10 μg/mL streptomycin, 20 mM 1-glutamine and 1 μM hydrocortisone±PMOs. At day 5, a hematopoietic growth factor cocktail (Hgf-cocktail) consisting of 20 ng/mL thrombopoietin, 50 ng/mL stem cell factor, 50 ng/mL interleukin-3 and 20 ng/mL interleukin-6, all purchased from PeproTech, N.J., was added to the wells. Cells were followed by daily direct light microscopy (×200) to assess cell proliferation. Cells that proliferated in response to growth factors were scored as cells that survived after the 5-day period in the absence of growth factors. […]
CD34^+ EPCs were isolated from cord blood, human bone marrow and peripheral blood as described above and sorted 10 cells per well in a 96 well plate in either the presence or absence of growth factors and in presence or absence of anti-TGFβ-PMO. […] This incubation period was previously determined by measuring the uptake of fluorescein isothyocyanate (FITC)-labelled PMOs in HSCs.

[5] = test system: murine HSCs; assay: CNV laser injury model, homing of adoptively transferred GFP+ murine HSCs; type: in vivo, mice; conditions: overnight pre-treatment of HSCs, vs control-PMO (p<0.05) or medium alone
[6] = test system: human CD34+ EPCs; assay: Retinal ischemia-reperfusion injury model, incorporation of injected human CD34+ EPCs; type: in vivo, mice; conditions: for repair of acellular capillaries: diabetic CD34+ cells
Protocol: Mice (n=20) were kept under inhalation anaesthesia (isoflurane vapor) during induction of ischemia. The anterior chamber of the eye was cannulated with a 30-gauge needle attached to an infusion line of sterile saline, and the eye was subjected to 2 h of hydrostatic pressure (80-90 mmHg, measured by TonoPen; Medtronic Solan, Jacksonville, Fla.). […] The contralateral eye served as a control.
Seven days after the insult, at which time retinal capillary damage was appreciable,^14,15 the animals were injected intravitreally with isolated human CD34^+ EPCs pre-treated with either […] or control-PMO. After 48 h the animals were euthanized, the eyes were enucleated and the neural retinas were isolated by dissection. The retinas were permeabilized as described above, and reacted with rhodamine-conjugated R. communis agglutinin I. To assess the location of the injected human CD34^+ EPCs, retinas were further incubated with mouse monoclonal anti-human nuclear antigen (Chemicon) followed by secondary staining with FITC-conjugated goat-anti-mouse IgG antibodies (Chemicon). Confocal images of six random fields were taken and fluorescence intensity in each 100 μm^2 was analysed using ImageJ software. Appropriate non-immune antibodies, as well as incubation without primary antibody, were used to determine background and non-specific antibody binding.

[7] = test system: Normal MPB CD34+CD45+; assay: Surface antigen expression after PMO treatment, normal cells; type: cell-based, human
[8] = test system: CXCR4; assay: Real-time PCR of CXCR4 mRNA in CD34+ EPCs; type: cell-based, human; conditions: normalized to β-actin
Protocol: as §1

[9] = test system: human peripheral blood-derived CD34+ cells; assay: NO production by DAF-FM fluorescence imaging; type: cell-based; conditions: for NO generation in response to SDF-1 after PMO treatment / NO-release by SDF-1 in anti-TGFβ-PMO treated cells with inhibitor: diabetic CD34+ cells; for NO generation in response to SDF-1 after PMO treatment / NO-release in response to SDF-1 after PMO pre-treatment: PMO 40 μg/mL; for NO-release in response to SDF-1 after PMO pre-treatment: n=3
Protocol: Human CD34^+ EPCs were incubated overnight with either control-PMO or anti-TGF-β-PMO at a concentration of 40 μg/mL. NO production was quantified in human peripheral blood-derived CD34^+ cells using NO-sensitive cell-permeant fluorescent dye DAF-FM. CD34^+ EPCs were loaded with 20 μM DAF-FM diacetate (Invitrogen) in 500 μl, of DPBS (MediaTech. Inc.) with glucose (1 mg/mL) and L-arginine (1 mM). […] Pharmacological inhibitors were added 30 min before the addition of DAF-FM. […] Cells were washed (4×) and 75 μL of cell suspension was placed in the coverslip-bottomed dish for fluorescence imaging. Fluorescent images were obtained using a computer-controlled monochromator excitation light source (TILL Polychrome II, TILL-Photonics, Martinsried, Germany) and a cooled CCD camera with exposure control (SensiCam, Till-photonics). During excitation at 488 nm with 50 ms of exposure time, emission at 510 nm was collected by the camera at 2×2 binning and images were acquired by Till-Vision software (Till Photonics, Martinsried, Germany). Images were corrected for background and maximum fluorescence intensity in individual cells was quantified in terms of arbitrary fluorescence units using Till-Vision software. Changes in fluorescence with different treatments were expressed as percent change with respect to cells that were used as time/vehicle control i.e. cells received no treatments but loaded with DAF-FM. Up to 75 numbers of cells were imaged per sample/donor and ‘n’ denotes number of donors used.

[10] = non-diabetic (normal) CD34+ EPCs

Compound	CD14 % of cells [2]	CD38 % of cells [2]	CD105 % of cells [2]	CXCR4 % of cells [2]	VEGFR-2 % of cells [2]	repair of acellular capillaries [6]	CD14 % of cells [7]	CD38 % of cells [7]	CD105 % of cells [7]	CXCR4 % of cells [7]	VEGFR-2 % of cells [7]	CXCR4 mRNA expression ([8]; diabetic CD34+ cells)	CXCR4 mRNA expression [8, 10]	NO generation in response to SDF-1 after PMO treatment ([9]; n=4)	NO-release in response to SDF-1 after PMO pre-treatment ([9]; non-diabetic CD34+ cells)	further results
anti-TGF-β-PMO: phosphorodiamidate morpholino antisense oligomer, 5′ GAG GGC GGC ATG III GAG GC 3′ (SEQ ID NO: 2), AVI BioPharma sequence ID#0-1-01067 (antisense GAGGGCGGCATGNNNGAGGC; all [PMO-N], the base at N not given here; further chemistry not fully specified)	62.4 % of cells	94.2 % of cells	51.7 % of cells	72.7 % of cells	62.4 % of cells	robust reparative response	73.3 % of cells	82.3 % of cells	62.9 % of cells	85.3 % of cells	56.5 % of cells	significantly increased	down-regulation	69±7%	54±4%	CXCR7 mRNA expression [1]: increased; migration to SDF-1 vs control-PMO ([3]; diabetic CD34+ EPCs, P<0.05): enhanced migration; migration to SDF-1 vs control-PMO ([3]; non-diabetic CD34+ EPCs, P<0.01): enhanced migration; cell survival ([4]; 40 μg/mL, compared with other concentrations): greatest cell survival; proliferation vs control-PMO ([4]; BM-derived cells): increased proliferation; macro colony size by day 14 after addition of growth factors ([4]; cord blood cells, 20-300 μg/mL, growth factors added after 5 days): > 100,000 cells; proliferation vs control-PMO ([4]; peripheral blood CD34+ cells from diabetics and age- and sex-matched controls): enhanced proliferation; numbers of GFP+ HSCs recruited to the laser injury site [5]: substantial increase; increase in incorporation of cells to injured retinal capillaries vs control-PMO ([6]; FITC immunoreactivity per 100 μm^2 area, P<0.001): 2.5 fold; homing to areas of ischemic injury ([6]; pre-treated EPCs injected intravitreally, vs control-PMO): profound homing
control-PMO: control morpholino oligomer, 5′ CGTTCTGATAGCTGTACCTC 3′ (SEQ ID NO: 1), AVI BioPharma sequence ID#0-1-0-555 (antisense CGTTCTGATAGCTGTACCTC; all phosphorodiamidate morpholino (PMO)) [reference compound]	59.3 % of cells	92.2 % of cells	58.8 % of cells	74.1 % of cells	59.3 % of cells	essentially no repair	69.3 % of cells	79.9 % of cells	71.0 % of cells	88.5 % of cells	62.9 % of cells	not changed	increased	9.2%	60±5%	
c1cc(CN2CCCNCCNCCCNCC2)ccc1CN1CCCNCCNCCCNCC1 [AMD3100]																NO-release by SDF-1 in anti-TGFβ-PMO treated cells with inhibitor ([9]; inhibitor 10 μM): 28±2%; NO release by SDF-1 after inhibitor pre-treatment ([9]; non-diabetic CD34+ cells, SDF-1 100 nM, inhibitor 10 μM): 3±2%
pertussis toxin																NO-release by SDF-1 in anti-TGFβ-PMO treated cells with inhibitor ([9]; inhibitor 100 ng/mL): 16±3%; NO release by SDF-1 after inhibitor pre-treatment ([9]; non-diabetic CD34+ cells, SDF-1 100 nM, inhibitor 100 ng/ml): 20±9%
O=c1cc(N2CCOCC2)oc2c(-c3ccccc3)cccc12 [LY294002]																NO release by SDF-1 after inhibitor pre-treatment ([9]; non-diabetic CD34+ cells, SDF-1 100 nM, inhibitor 20 μM): 12±3%
SDF-1: the principal stem/progenitor cell homing factor, used as chemotaxis effector and NO release stimulus																increase in NO generation vs time-control ([9]; non-diabetic CD34+ cells, SDF-1 100 nM, n=4): 45±4%
